The numbers were not newly measured in US20020064788A1, “Systematic approach to mechanism-of-response analyses” (priority 2000, published 2002), which cites them from elsewhere.

Where two headings read alike, the source gives them in different places.

One data set relates to androgen-dependent cells. The conditions noted are these: ouabain-induced decrease in Na+K+-ATPase activity.
Data set [1] has as its system intracellular Ca^2+ levels; c-fos, c-jun, AP-1. Conditions: partial inhibition of Na+K+-ATPase.
Data set [2] relates to malignant and normal cells.
Data set [3] relates to Jurkat (T-cell) cell lines.
The subject of a further data set is breast cancer. Conditions: women on digitalis, five years after mastectomy.
The subject of the next data set is Glioblastoma cell lines. Conditions: 30-60 nM, several Glioblastoma cell lines.
Data set [4] deals with Daudi (B-cell) cell lines. Conditions: non-toxic doses.

Take `C[C@H]1O[C@@H](O[C@H]2[C@@H](O)C[C@H](O[C@H]3[C@@H](O)C[C@H](O[C@H]4CC[C@@]5(C)[C@H](CC[C@@H]6[C@@H]5CC[C@]5(C)[C@@H](C7=CC(=O)OC7)CC[C@]65O)C4)O[C@@H]3C)O[C@@H]2C)C[C@H](O)[C@@H]1O` [Digitoxin]: in the data set on Na^+K^+-ATPase, the “inhibition of Na+K+-ATPase” value is “specific inhibitors”.
Take `C[C@@H]1O[C@@H](O[C@H]2C[C@@H](O)[C@]3(CO)[C@H]4[C@H](O)C[C@]5(C)[C@@H](C6=CC(=O)OC6)CC[C@]5(O)[C@@H]4CC[C@]3(O)C2)[C@H](O)[C@H](O)[C@H]1O` [ouabain]: the “sensitivity of cells to cisplatin” value in the data set on androgen-dependent cells is given as “reduces sensitivity”. Besides, the “expression of c-fos, c-jun, and the transcription factor AP-1” value in data set [1] is on record as “increases”. In data set [1], the “intracellular Ca2+ levels” value is listed as “increases”. Moreover, the results for the sensitization to irradiation entry in data set [2] (malignant cells) and in data set [2] (normal cells) were “sensitizes” and “not”, respectively. Moreover, the “inhibition of Na+K+-ATPase” value in the data set on Na^+K^+-ATPase is listed as “specific inhibitors”.
For `CC/C(=C(\c1ccccc1)c1ccc(OCCN(C)C)cc1)c1ccccc1` [tamoxifen], the “inhibition of Na+K+-ATPase” value in the data set with Na^+K^+-ATPase is listed as “appears to inhibit”.
On to digitalis, for which the apoptosis entry in data set [3] (non-toxic doses, Jurkat) is listed as “induces apoptosis”; with Glioblastoma cell lines it was “induces apoptosis”; in data set [4], “induces apoptosis”. In addition, in the data set with breast cancer, the “reduction in recurrence of breast cancer” value was 9.6 fold. Moreover, the cell adherence result in the data set on Glioblastoma cell lines was “affects cell adherence”.

B1: Fas ligand: protein which binds to Fas receptor and strongly induces apoptosis (protein, UniProt P48023 130-281, looked up)
Tumor necrosis factor ligand …: QIGHPSPPPEKKELRKVAHLTGKSNSRSMPLEWEDTYGIVLLSGVKYKKGGLVINETGLYFVYSKVYFRGQSCNNLPLSHKVYMRNSKYPQDLVMMEGKMMSYCTTGQMWARSSYLGAVFNLTSADHLYVNVSELSLVNFEESQTFFGLYKL
Take B1: the apoptosis entry in data set [3] (Jurkat cells, monitored by flow cytometry) is on record as “induces apoptosis”.
